Results taken from patent US8518466B2 (Shenzhen Hazardous Waste Treatment Station Ltd., priority 2008, dated 2013).

System: weaned piglet
Conditions: piglets
Description: According to the weight, sex, litter, the 60 weaned piglets were randomly divided into five groups. Group 1 is the control group using corn-soybean meal-dray whey powder diet with adding 150 mg/kg of basic copper chloride but without adding selenium. Group 2 and 3 are testing group using corn-soybean meal-dray whey powder diet with adding 0.3 mg/kg and 0.5 mg/kg of sodium selenite respectively, and adding 150 mg/kg of basic copper chloride. […] The testing period is 35 days, including 7 days of pre-test period and 28 days of formal test period.

With `O=[Se](O)O` [sodium selenite] as the compound, how does the “selenium level of kidney compared with control group” value (0.3 and 0.5 mg/kg in diet) read?
Its value is “significantly higher”.

And the “selenium level of liver compared with control group” value (0.3 and 0.5 mg/kg in diet)?
Its value is “significantly higher”.

What about the “copper content in liver among groups” value (all groups) of the same compound?
Its value is “almost the same”.
